Test results published in ChEMBL document CHEMBL1154198, “Chemical genetics of Plasmodium falciparum” (Nature, 2010).

Columns and labels:
[1] = test system: Plasmodium falciparum; experiment: ST_JUDE: Plasmodium falciparum 3D7 EC50 (uM) as measured by SYBR green dye; format: functional, organism-based
[2] = test system: Plasmodium falciparum; experiment: ST_JUDE: Plasmodium falciparum K1 EC50 (uM) as measured by SYBR green dye; format: functional, organism-based

Compound | EC50 [1] [µM] | EC50 [2] [µM]
Cc1ccc2nc(NNC(=O)c3ccc(S(=O)(=O)N(C)C)cc3)sc2c1 | 5.03 | 5.39
CCOC(=O)c1oc2ccccc2c1NC(=O)c1ccc(C)c([N+](=O)[O-])c1 | > 15 | > 15
COC(=O)C1=CNC=C(C(=O)OC)C1c1ccc(F)c(F)c1 | 8.04 | > 15
CCc1c(C)nc(-n2nc(C)cc2NC(=O)c2cccc(Br)c2)nc1O | > 15 | > 15
CCOc1ccccc1CNC(=O)C1c2ccccc2C(=O)N(CC(C)C)C1c1cccs1 (stereo unspecified) | 1.43 | 1.49
COc1ccc(NC(=O)COc2c(C)cc(Br)cc2C)c(OC)c1 | > 15 | 5.44
O=C(Nc1cccc(Br)c1)c1cc2ccccc2cc1O | > 15 | 0.57
Oc1c(CN2CCN(c3cccc(Cl)c3)CC2)cc(Br)c2cccnc12 | 0.88 | > 15
CCCc1cc(O)nc(Nc2ccc(Cl)c(C(F)(F)F)c2)n1 | 3.09 | 2.84
Cn1c(-c2ccccc2)[n+](C)c2ccccc21 | 11.7 | 8.29
COc1ccc(CCNC(=S)Nc2ccccc2C)cc1OC | 3.75 | 3.96
CCN(CC)CCNc1nc(Nc2cccc(OC)c2)c2cnn(-c3ccccc3)c2n1 | 0.458 | 2.96
CCOC(=O)C1=C(C)N=c2s/c(=C\c3ccc(O)cc3)c(=O)n2C1c1ccc(OC)c(OC)c1 (stereo unspecified) | > 15 | 1.4
COc1ccc(C)c2sc(N(Cc3cccnc3)C(=O)c3ccc(C#N)cc3)nc12 | > 15 | > 15
Cc1cc(N2CCN(C)CC2)nc(N2CCN(C(=O)c3ccc(C(C)(C)C)cc3)CC2)n1 | > 15 | > 15
CCN(CC)CCCNc1nc(-c2ccc(Cl)cc2)nc2ccccc12 | > 15 | > 15
Cc1nc2ccccc2c(=O)n1-c1cccc(NC(=O)c2ccc(C(F)(F)F)cc2)c1 | > 15 | > 15
COc1ccccc1-c1nnc(NC(=O)c2cccc(SC)c2)o1 | > 15 | > 15
CCc1ccccc1NC(=O)C1c2ccccc2C(=O)N(C2CCCC2)C1c1cccs1 (stereo unspecified) | 1.73 | 3.38
CCCc1cc(O)nc(-n2nc(C)cc2NC(=O)c2cccc(C)c2)n1 | 2.22 | > 15
CCOC(=O)c1cnc2ccc(OC)cc2c1NCc1ccccc1 | 2.77 | > 15
Cc1ccc(O)c(NC(=O)c2noc3c2CC(C(C)(C)C)CC3)c1 (stereo unspecified) | > 15 | 0.483
O=C(CSc1ccc2nnc(-c3cccc(F)c3)n2n1)Nc1cccc(F)c1 | > 15 | 1.08
CC[n+]1c(C=C2C=CN(C)C=C2)ccc2cc(C)ccc21 | 2.8 | 0.469
O=[N+]([O-])c1cccc(-c2cn(-c3ccccc3)c3[n+]2CCCS3)c1 | 2.28 | 3.91

Further lines, results first:

EC50 [1] [µM] | EC50 [2] [µM] | Compound
> 15 | 4.96 | CC(=O)Nc1ccc(NC(=O)CSc2nn3c(=O)c(C)nnc3s2)cc1
> 15 | > 15 | CCOC(=O)c1ccc2nc(C)c(CN3CCN(C(c4ccccc4)c4ccccc4)CC3)c(O)c2c1
1.22 | > 15 | Cc1c(Cl)ccc2c(C(=O)Nc3ccc(S(=O)(=O)N4CCOCC4)cc3)cc(-c3cccnc3)nc12
4.46 | 6.77 | CC(C)C(=O)N1CCN(c2ccc([N+](=O)[O-])c(NC3CC3)c2)CC1
> 15 | 1.58 | CC(=O)c1ccc(NC2=C(n3nnc4ccccc43)C(=O)c3ccccc3C2=O)cc1
1.31 | 3.72 | CN1CCN(c2nc(Nc3ccc(SC(F)F)cc3)c3cnn(-c4ccccc4)c3n2)CC1
6.75 | 3.57 | O=C1c2ccccc2/C(=N/Nc2ccc([N+](=O)[O-])cc2)C1c1cc(Br)ccc1[N+](=O)[O-] (stereo unspecified)
> 15 | > 15 | O=C(O)c1ccc(S(=O)(=O)NC2=C/C(=N\S(=O)(=O)c3ccccc3)C(=O)c3ccccc32)cc1
> 15 | 2.18 | CCOC(=O)C1CCN(C(=O)CN(Cc2ccc(Cl)cc2)S(=O)(=O)c2ccc(C)cc2)CC1
> 15 | 6.73 | CC(=O)C1=C(C)NC(SCC(=O)c2cccc([N+](=O)[O-])c2)=C(C#N)C1c1ccc(Cl)cc1 (stereo unspecified)
3.75 | 4.06 | CCn1cc(CCCC(=O)NCc2ccc(OC)cc2)c2ccccc21
> 15 | > 15 | COc1cccc2sc(N(Cc3cccnc3)C(=O)C3CCCCC3)nc12
3.57 | 2.41 | Cc1ccc(O)c(-n2cc3c(c2-c2ccc(C(C)(C)C)cc2)c(=O)n(C)c(=O)n3C)c1
> 15 | 5.08 | CN(C)c1ccc(Nc2nc(-c3cccnc3)nc3ccccc23)cc1
3.2 | 9.17 | Cc1cc(Nc2ccc(F)c(Cl)c2)n2nc(C)nc2n1
> 15 | 5.26 | C=CCOC(=O)C1=C(C)N=C2CCCC(O)=C2C1c1ccc(OCC)c(OC)c1 (stereo unspecified)
3.4 | 5.25 | CCCN(CCC)CCCNC(=S)Nc1ccc2nc(N3CCN(C)CC3)cc(C)c2c1
0.572 | 0.453 | CC[n+]1ccccc1/C=C1\Sc2ccc(C)cc2N1C
